# Experimental data as given in PMC11606603, “The membrane domains of mammalian adenylyl cyclases are lipid receptors” (eLife, 2024).
# Values joined by “and” are separate entries in the source; they are usually repeats but may differ in a detail not shown here. Identical values can stand only once. “Also recorded” adds a separate entry of the source.
# Columns and labels:
# [1] = target: T1, mAC3 (Homo sapiens, UniProt O60266); test: AC assay, Gsα-stimulated mAC3 in membranes from transfected HEK293 cells; type: biochemical; set-up: ATP/V (mAC3 + 20µM Oleic acid): unit not given here; settings: for Effect of lipid on 300 nM Gsα-stimulated mAC3: 20 µM, in words; for ATP/V (mAC3 + 20µM Oleic acid): Hanes-Woolf plot; for mAC3 activity + 20µM Oleic acid: Michaelis-Menten; for mAC3 activity [%] (100% = 300nM Gsα stimulation): individual experiments
# T1 construct: Human mAC genes were from GenScript and fitted with a C-terminal FLAG-tag; FLAG (C); made in house; host or cells: HEK293, permanently transfected; membrane preparation
# T1 sequence (P63092 whole entry Q227L partner, one chain of several): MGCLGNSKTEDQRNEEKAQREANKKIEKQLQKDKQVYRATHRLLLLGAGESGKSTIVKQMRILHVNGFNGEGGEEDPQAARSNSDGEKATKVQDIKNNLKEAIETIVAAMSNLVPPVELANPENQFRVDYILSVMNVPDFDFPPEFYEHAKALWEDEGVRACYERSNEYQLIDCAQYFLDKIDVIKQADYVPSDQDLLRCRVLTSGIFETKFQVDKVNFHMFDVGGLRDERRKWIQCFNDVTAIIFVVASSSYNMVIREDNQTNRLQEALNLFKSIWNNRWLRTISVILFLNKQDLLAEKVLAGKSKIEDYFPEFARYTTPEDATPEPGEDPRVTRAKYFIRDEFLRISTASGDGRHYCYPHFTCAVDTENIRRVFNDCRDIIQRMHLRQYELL
# Outline: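 EC50 and IC50 values come from cAMP production, read with a Cisbio cAMP kit and converted via a standard curve. Assay mix held 1 mM ATP, 2 mM MgCl2, 3 mM creatine phosphate and 60 μg/ml creatine kinase in 50 mM MOPS pH 7.5, using transfected HEK293 membranes.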
# [2] = target: T2, HEK293 cells permanently transfected with mAC3 (Homo sapiens, UniProt O60266); test: cAMP accumulation assay, isoproterenol-stimulated HEK-mAC3 cells; type: cell-based
# T2 construct: Human mAC genes were from GenScript and fitted with a C-terminal FLAG-tag; FLAG (C); expressed in transfected cells; host or cells: HEK293, permanently transfected
# T2 sequence (O60266 1-1144): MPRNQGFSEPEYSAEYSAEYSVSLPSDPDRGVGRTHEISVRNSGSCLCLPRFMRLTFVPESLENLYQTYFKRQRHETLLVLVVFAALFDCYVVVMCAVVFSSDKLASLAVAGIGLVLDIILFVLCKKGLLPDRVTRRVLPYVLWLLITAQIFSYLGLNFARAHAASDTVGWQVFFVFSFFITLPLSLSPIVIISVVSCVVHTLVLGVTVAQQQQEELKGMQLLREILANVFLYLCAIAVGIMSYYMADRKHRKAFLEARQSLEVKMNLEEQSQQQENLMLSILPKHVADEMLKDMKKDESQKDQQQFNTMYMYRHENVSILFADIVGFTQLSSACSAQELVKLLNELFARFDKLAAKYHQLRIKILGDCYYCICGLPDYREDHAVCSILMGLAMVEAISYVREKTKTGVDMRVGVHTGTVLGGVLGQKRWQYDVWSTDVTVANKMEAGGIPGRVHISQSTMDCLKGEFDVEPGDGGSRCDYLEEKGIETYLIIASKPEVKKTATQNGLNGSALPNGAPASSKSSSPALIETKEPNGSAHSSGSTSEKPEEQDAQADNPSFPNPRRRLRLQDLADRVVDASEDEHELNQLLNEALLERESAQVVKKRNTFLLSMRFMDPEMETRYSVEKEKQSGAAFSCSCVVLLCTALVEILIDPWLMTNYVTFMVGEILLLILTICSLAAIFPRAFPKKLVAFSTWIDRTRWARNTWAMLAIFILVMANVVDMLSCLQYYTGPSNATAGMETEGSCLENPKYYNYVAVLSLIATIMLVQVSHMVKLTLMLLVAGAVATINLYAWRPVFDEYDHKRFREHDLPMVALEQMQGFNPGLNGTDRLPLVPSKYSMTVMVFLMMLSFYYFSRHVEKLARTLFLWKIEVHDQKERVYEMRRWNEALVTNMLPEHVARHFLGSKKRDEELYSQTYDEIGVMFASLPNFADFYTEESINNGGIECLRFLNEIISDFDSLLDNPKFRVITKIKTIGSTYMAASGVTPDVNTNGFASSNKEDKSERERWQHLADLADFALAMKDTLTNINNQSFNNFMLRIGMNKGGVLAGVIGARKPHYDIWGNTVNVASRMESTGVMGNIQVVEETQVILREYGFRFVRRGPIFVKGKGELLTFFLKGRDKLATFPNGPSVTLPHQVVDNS
# Method: hAC sequences were from NCBI were: ADCY1: NM_021116.3; ADCY2: NM_020546.2; ADCY3: NM_004036.4; ADCY4: NM_001198568.2; ADCY5: NM_183357.2; ADCY6: NM_015270.4; ADCY7: NM_001114.4; ADCY8: NM_001115.2; ADCY9: NM_001116.3. Human mAC genes were from GenScript and fitted with a C-terminal FLAG-tag. […] The gene was synthesized by GenScript. HEK293 cells were maintained in Dulbeccos Modified Eagle Medium (DMEM) with 10% fetal bovine serum at 37°C and 5% CO2. Transfection with AC plasmids was with PolyJet (SignaGen, Frederick, MD, USA). Permanent cell lines were generated by selection for 7 days with 600 µg/ml G418 and maintained with 300 µg/ml For membrane preparation, cells were tyrpsinized, collected by centrifugation (3000 × g, 5 min) and lysed and homogenized in 20 mM HEPES, pH 7.5, 1 mM Ethylenediaminetetraacetic acid (EDTA), 2 mM MgCl2, 1 mM Dithiothreitol (DTT), one tablet of cOmplete, EDTA-free (per 50 ml) and 250 mM sucrose by 20 strokes in a potter homogenizer on ice. Debris was removed (5 min at 1000 × g, 0°C), membranes were collected at 100,000 × g, 60 min at 0°C, suspended and stored at −80°C in 20 mM MOPS, pH 7.5, 0.5 mM EDTA, 2 mM MgCl2. […] Three cerebral cortices were dissected and homogenized in 4.5 ml cold 48 mM Tris–HCl, pH 7.4, 12 mM MgC1_2, and 0.1 mM Ethylene glycol-bis(β-aminoethyl ether)-N,N,N′,N′-tetraacetic acid (EGTA) with a Polytron hand disperser (Kinematica AG, Switzerland). […] The pellet was washed once with 5 ml 1 mM KHCO3. The final suspension in 2 ml 1 mM KHCO3 was stored in aliquots at −80°C.
# HEK293 cells stably expressing mAC isoforms 3, 5, and mAC5(membr)_mAC3(cat) were plated at 2500–10,000 cells/well into 384-well plates. […] Addition of Cisbio HTRF detection reagents stopped the reaction and cAMP levels were determined.
structure (smiles),measurement,setting,value
"CCCCCCCC/C=C\CCCCCCCC(=O)O [Oleic acid, Oleic ((9Z)-octadecenoic) acid]",time over which the action on mAC3 was linear,"[1]; 300 nM Gsα + 20 µM oleic acid, 37°C",> 25 min
same,"enhancement of cAMP formation, mAC3","[1]; 20 µM oleic, over the Gsα concentration range tested",about 3.4 fold
same,Effect of lipid on 300 nM Gsα-stimulated mAC3,[1],threefold
same,"activity, mAC3 + 20µM Oleic acid",[1]; Gsα 100 nM,0.209 cAMP nmol/mg/min and 0.110 cAMP nmol/mg/min and 0.112 cAMP nmol/mg/min
same,"activity, mAC3 + 20µM Oleic acid",[1]; Gsα 300 nM,0.432 cAMP nmol/mg/min and 0.605 cAMP nmol/mg/min and 0.596 cAMP nmol/mg/min
same,"activity, mAC3 + 20µM Oleic acid",[1]; Gsα 450 nM,0.779 cAMP nmol/mg/min and 1.182 cAMP nmol/mg/min and 0.727 cAMP nmol/mg/min
same,"activity, mAC3 + 20µM Oleic acid",[1]; Gsα 600 nM,0.825 cAMP nmol/mg/min and 1.078 cAMP nmol/mg/min and 1.302 cAMP nmol/mg/min
same,"activity, mAC3 + 20µM Oleic acid",[1]; Gsα 800 nM,1.075 cAMP nmol/mg/min and 1.164 cAMP nmol/mg/min and 1.303 cAMP nmol/mg/min
same,"activity, mAC3 + 20µM Oleic acid",[1]; Gsα 1000 nM,1.029 cAMP nmol/mg/min and 1.444 cAMP nmol/mg/min and 1.731 cAMP nmol/mg/min
same,ATP/V (mAC3 + 20µM Oleic acid),[1]; ATP 50 µM,208.8
same,ATP/V (mAC3 + 20µM Oleic acid),[1]; ATP 75 µM,204.9
same,ATP/V (mAC3 + 20µM Oleic acid),[1]; ATP 250 µM,392.9
same,ATP/V (mAC3 + 20µM Oleic acid),[1]; ATP 500 µM,636.9
same,ATP/V (mAC3 + 20µM Oleic acid),[1]; ATP 750 µM,814.6
same,ATP/V (mAC3 + 20µM Oleic acid),[1]; ATP 1000 µM,941.6
same,mAC3 activity + 20µM Oleic acid,[1]; ATP 50 µM,0.232 nmol cAMP/mg/min and 0.247 nmol cAMP/mg/min
same,mAC3 activity + 20µM Oleic acid,[1]; ATP 75 µM,0.434 nmol cAMP/mg/min and 0.298 nmol cAMP/mg/min
same,mAC3 activity + 20µM Oleic acid,[1]; ATP 250 µM,0.713 nmol cAMP/mg/min and 0.609 nmol cAMP/mg/min and 0.587 nmol cAMP/mg/min
same,mAC3 activity + 20µM Oleic acid,[1]; ATP 500 µM,0.786 nmol cAMP/mg/min and 0.782 nmol cAMP/mg/min and 0.787 nmol cAMP/mg/min
same,mAC3 activity + 20µM Oleic acid,[1]; ATP 750 µM,0.817 nmol cAMP/mg/min and 0.753 nmol cAMP/mg/min and 1.192 nmol cAMP/mg/min
same,mAC3 activity + 20µM Oleic acid,[1]; ATP 1000 µM,0.944 nmol cAMP/mg/min and 1.156 nmol cAMP/mg/min and 1.086 nmol cAMP/mg/min
same,EC50,[1]; enhancement of 300 nM Gsα-stimulated activity,10.4 µM
same,mAC3 activity [%] (100% = 300nM Gsα stimulation),[1]; fatty acid 0.5 µM,100%
same,mAC3 activity [%] (100% = 300nM Gsα stimulation),[1]; fatty acid 1 µM,112% and 105% and 91% and 64% and 97% and 107% and 78% and 95% and 111% and 139% and 103% and 106% and 87%
same,mAC3 activity [%] (100% = 300nM Gsα stimulation),[1]; fatty acid 3 µM,98% and 158% and 97% and 183% and 141% and 160% and 142% and 105% and 145% and 150%
same,mAC3 activity [%] (100% = 300nM Gsα stimulation),[1]; fatty acid 6 µM,117% and 105% and 165% and 187% and 143% and 169% (2×) and 166% and 97%
same,mAC3 activity [%] (100% = 300nM Gsα stimulation),[1]; fatty acid 10 µM,271% and 106% and 156% and 151% and 142% and 280% and 178% and 252% and 181% and 191% and 139% and 175% and 284% and 260% and 266% and 166%
same,mAC3 activity [%] (100% = 300nM Gsα stimulation),[1]; fatty acid 20 µM,341% and 348% and 429% and 323% and 430% and 264% and 322% and 395% and 181% and 452% and 464% and 265% (2×)
same,mAC3 activity [%] (100% = 300nM Gsα stimulation),"[1]; fatty acid 20 µM, listed as Oleic",298% and 532% and 253% and 428% and 297%
same,mAC3 activity; stimulated by 300nM Gsα + 20µM Oleic acid,"[1]; time 3 min, 37°C",2.601 cAMP nmol/mg and 2.019 cAMP nmol/mg
same,mAC3 activity; stimulated by 300nM Gsα + 20µM Oleic acid,"[1]; time 6 min, 37°C",2.734 cAMP nmol/mg and 2.75 cAMP nmol/mg
same,mAC3 activity; stimulated by 300nM Gsα + 20µM Oleic acid,"[1]; time 10 min, 37°C",3.46 cAMP nmol/mg
same,mAC3 activity; stimulated by 300nM Gsα + 20µM Oleic acid,"[1]; time 15 min, 37°C",4.543 cAMP nmol/mg and 5.759 cAMP nmol/mg
same,mAC3 activity; stimulated by 300nM Gsα + 20µM Oleic acid,"[1]; time 20 min, 37°C",6.22 cAMP nmol/mg and 8.564 cAMP nmol/mg
same,mAC3 activity; stimulated by 300nM Gsα + 20µM Oleic acid,"[1]; time 25 min, 37°C",9.573 cAMP nmol/mg and 11.033 cAMP nmol/mg
same,"Vmax, mAC3",[1]; with 20 µM oleic acid,1.23 nmol cAMP•mg^−1•min^−1
same,EC50,[2]; 2.5 µM isoproterenol,0.5 µM
same,enhancement of cAMP formation in HEK-mAC3,[2]; 2.5 µM isoproterenol,1.5 fold
same,AC activity (%); 100%= 2.5µM Isoproterenol stimulation,"[2]; HEK-mAC3, oleic acid 0.01 µM",132%
same,AC activity (%); 100%= 2.5µM Isoproterenol stimulation,"[2]; HEK-mAC3, oleic acid 0.03 µM",145% and 87%
same,AC activity (%); 100%= 2.5µM Isoproterenol stimulation,"[2]; HEK-mAC3, oleic acid 0.06 µM",118% and 89%
same,AC activity (%); 100%= 2.5µM Isoproterenol stimulation,"[2]; HEK-mAC3, oleic acid 0.1 µM",122% and 118% and 127% and 150%
same,AC activity (%); 100%= 2.5µM Isoproterenol stimulation,"[2]; HEK-mAC3, oleic acid 0.3 µM",130% and 163%
same,AC activity (%); 100%= 2.5µM Isoproterenol stimulation,"[2]; HEK-mAC3, oleic acid 0.5 µM",140% and 92%
same,AC activity (%); 100%= 2.5µM Isoproterenol stimulation,"[2]; HEK-mAC3, oleic acid 0.6 µM",135% and 121% and 113% and 161%
same,AC activity (%); 100%= 2.5µM Isoproterenol stimulation,"[2]; HEK-mAC3, oleic acid 3 µM",190% and 191% and 198% and 119%
same,AC activity (%); 100%= 2.5µM Isoproterenol stimulation,"[2]; HEK-mAC3, oleic acid 10 µM",199% and 123% and 137% and 198% and 118% and 119%
same,AC activity (%); 100%= 2.5µM Isoproterenol stimulation,"[2]; HEK-mAC3, oleic acid 50 µM",187% and 186% and 134%
"CCCCCCCCCCCCCCCCCC(=O)O [Stearic acid, Stearic (octadecanoic) acid]",Effect of lipid on 300 nM Gsα-stimulated mAC3,[1],no significant effect; also recorded: inactive
same,mAC3 activity [%] (100% = 300nM Gsα stimulation),[1]; fatty acid 0.5 µM,100%
same,mAC3 activity [%] (100% = 300nM Gsα stimulation),[1]; fatty acid 1 µM,121% and 48% and 49% and 110% and 79%
same,mAC3 activity [%] (100% = 300nM Gsα stimulation),[1]; fatty acid 3 µM,84% and 77% and 52% and 121% and 116%
same,mAC3 activity [%] (100% = 300nM Gsα stimulation),[1]; fatty acid 6 µM,91% and 103% (2×) and 32% and 75%
same,mAC3 activity [%] (100% = 300nM Gsα stimulation),[1]; fatty acid 10 µM,69% and 84% and 76% and 71% and 80% and 79%
same,mAC3 activity [%] (100% = 300nM Gsα stimulation),[1]; fatty acid 20 µM,115% and 83% and 68% and 70% and 65% and 160%
same,Effect on isoproterenol-stimulated cAMP formation in HEK-mAC3,[2]; in words,inactive
